Like-named read-outs stand apart in the source and are kept apart here.
Assays:
physchem = settings: water, thermodynamic from solid
[1] = Dynamic vapor sorption/desorption (DVS); type: physicochemical; settings: for Solid form after DVS, by XRPD: after sorption/desorption; for DVS weight loss upon equilibration: equilibration at 5% RH
Source text: Moisture sorption/desorption data were collected on a VTI SGA-100 Vapor Sorption Analyzer under a nitrogen purge. […] Data were not corrected for the initial moisture content of the samples. Sodium chloride and polyvinypyrrolidine were used as calibration standards.

[2] = Slurry experiment, form conversion by XRPD; type: physicochemical; settings: slurried in ethanol for 21 days
Protocol: Solutions were prepared by adding enough solids to a given solvent so that excess solids were present. The mixture was then agitated in a sealed vial at either ambient or a set temperature.

[3] = Physical stability, stress experiments (temperature/RH) with XRPD; type: physicochemical; settings: for Physical stability (overall finding): at the conditions investigated, HCl salt

Cl.FC(F)(F)c1ccc(CNc2ccc(Cc3c[nH]c4ncc(Cl)cc34)cn2)cn1 [Compound I Form A, [5-(5-chloro-1H-pyrrolo[2,3-b]pyridin-3-ylmethyl)-pyridin-2-yl]-(6-trifluoromethyl-pyridin-3-ylmethyl)-amine HCl salt]
solubility (physchem): < 2000 µg/mL | DVS additional weight gain, sorption step ([1]; above 75% RH): 1.7% | Solid form after DVS, by XRPD ([1]; listed as Form A, HCl salt): Form A | DVS weight gain, sorption step ([1]; from 5% to 75% RH): 0.6% | Hygroscopicity (DVS isotherm) ([1]; listed as Form A, HCl salt): hygroscopic | Form conversion on slurry [2]: complete conversion to Form C | XRPD Result (solid form after stress) ([3]; 40° C./75% RH/14 d): A + C | XRPD Result (solid form after stress) ([3]; 80° C./7 d (<<100 mg)): converted to Form C | XRPD Result (solid form after stress) ([3]; RT/85% RH/14 d): A + minor C | Physical stability (overall finding) ([3]; listed as Form A): physically metastable | Form conversion on exposure to elevated humidity ([3]; elevated humidity): partial conversion to Form C

Cl.FC(F)(F)c1ccc(CNc2ccc(Cc3c[nH]c4ncc(Cl)cc34)cn2)cn1 [Compound I Form B, [5-(5-chloro-1H-pyrrolo[2,3-b]pyridin-3-ylmethyl)-pyridin-2-yl]-(6-trifluoromethyl-pyridin-3-ylmethyl)-amine HCl salt]
Form conversion on heating ([3]; about 150° C. for about 5 minutes): Desolvation/conversion to Form C

Cl.FC(F)(F)c1ccc(CNc2ccc(Cc3c[nH]c4ncc(Cl)cc34)cn2)cn1 [Compound I Form C, [5-(5-chloro-1H-pyrrolo[2,3-b]pyridin-3-ylmethyl)-pyridin-2-yl]-(6-trifluoromethyl-pyridin-3-ylmethyl)-amine HCl salt]
Solid form after DVS, by XRPD ([1]; listed as Form C, HCl salt): remained unchanged | DVS weight gain, sorption step ([1]; from 5% to 95% RH): 0.96% | Hygroscopicity (DVS isotherm) ([1]; listed as Form C, HCl salt): less hygroscopic than Form A | Physical stability (overall finding) ([3]; listed as Form C): more physically stable than Form A

CO.Cl.FC(F)(F)c1ccc(CNc2ccc(Cc3c[nH]c4ncc(Cl)cc34)cn2)cn1 [Compound I Form D, [5-(5-chloro-1H-pyrrolo[2,3-b]pyridin-3-ylmethyl)-pyridin-2-yl]-(6-trifluoromethyl-pyridin-3-ylmethyl)-amine HCl salt methanol solvate]
DVS weight loss, desorption phase ([1]; desorption phase): 0.9% | DVS weight loss upon equilibration [1]: approximately 5.3% | DVS weight gain, sorption phase ([1]; sorption phase): 0.9% | Form conversion on heating ([3]; 80° C. for 15 minutes): desolvated to Form A | Form conversion on heating ([3]; continued exposure to 80° C. for 2 days): converted to Form C

FC(F)(F)c1ccc(CNc2ccc(Cc3c[nH]c4ncc(Cl)cc34)cn2)cn1 [Compound II, [5-(5-chloro-1H-pyrrolo[2,3-b]pyridin-3-ylmethyl)-pyridin-2-yl]-(6-trifluoromethyl-pyridin-3-ylmethyl)-amine]
Hygroscopicity (DVS isotherm) [1]: hygroscopic | DVS weight loss upon equilibration [1]: 0.3-0.4% | DVS weight gained ([1]; from 45% to 95% RH): ~21.6%

Reference: patent US10584122B2, “Solid forms of a compound modulating kinases” (Plexxikon Inc., priority 2015, dated 2020)
